# Values joined by “and” are separate entries in the source; they are usually repeats but may differ in a detail not shown here. Equal values may be shown once. “Also recorded” adds a separate entry of the source. Read-outs that look alike come from different tables or passages of the source.
# Legend:
# human CB1 receptor = biological target: T1, human CB1 receptor (Homo sapiens, UniProt P21554); assay: CB1 receptor binding, [3H]CP55,940 displacement in membranes of transfected cells
# T1 construct: expressed in transfected cells; b94 says CHO for CB1
# Description: For the in vivo studies, the drugs were dissolved in either saline or emulphor:ethanol:saline (E:E:S) as indicated.
# cLogP calculations. Absolute solubility determinations were not performed. Rather, cLogP calculations were performed using the CS ChemDraw Ultra software (Cambridge Soft Corporation, Cambridge, Mass.). Receptor Binding. HEK-293 cells stably expressing the human CB1 receptor were cultured in DMEM with 10% FBS and Chinese Hamster Ovary (CHO) cells stably expressing the human CB2 receptor were cultured in DMEM with 10% FCS. Cells were harvested by replacement of the media with cold phosphate-buffered saline containing 1 mM EDTA followed by centrifugation at 1000×g for 5 min at 4° C. The pellet was resuspended in 50 mM Tris-HCl containing 320 mM sucrose, 2 mM EDTA and 5 mM MgCl2 (pH 7.4) (centrifugation buffer), then centrifuged at 1000×g for 10 min at 4° C., and the resulting supernatant was saved. This process was repeated twice. The supernatant fractions were combined and centrifuged at 40,000×g for 30 min at 4° C. The resulting P2 pellet was resuspended in assay buffer (50 mM Tris-HCl (pH 7.4), 3 mM MgCl2, 0.2 mM EGTA, and 100 mM NaCl) and protein was determined by the method of Bradford ENRfu(Bradford 1976). Membranes were stored at −80° C. until use. […] The assay was incubated at 30° C. for 1 hr and terminated by addition of ice cold 50 mM Tris-HCl plus BSA (1 mg/ml) (pH 7.4) followed by filtration under vacuum through Whatman GF/B glass fiber filters with 3 washes with cold Tris buffer. Bound radioactivity was determined by liquid scintillation spectrophotometry at 50% efficiency after extraction by shaking samples for 30-60 min with Budget-Solve scintillation fluid. Data are reported as the mean±SEM of three experiments, each performed in triplicate. Ki values were calculated from displacement data using EBDA (Equilibrium Binding Data Analysis; BIOSOFT, Milltown, N.J.). [^35S]GTPγS Binding Assays. Concentration-effect curves were generated by incubating membranes (10 μg prepared from CB1 expressing cells as described above) in assay buffer containing BSA (1 mg/ml) with various concentrations of test compounds in the presence of 20 μM GDP and 0.1 nM [^35S]GTPγS in a 1 ml total volume. […] Basal binding was assessed in the absence of agonist, and nonspecific binding was measured in the presence of 10 μM GTPγS. The reaction was incubated for 90 min at 30° C. and terminated by filtration under vacuum through Whatman GF/B glass fiber filters with 3 washes with cold (4° C.) Tris buffer (50 mM Tris-HCl, pH 7.4). Bound radioactivity was determined by liquid scintillation spectrophotometry at 95% efficiency after extraction overnight in ScintiSafe Econo 1 scintillation fluid. Data are reported as mean±SEM of three experiments, each performed in triplicate. Nonlinear regression analysis was conducted by iterative fitting using JMP (SAS for Macintosh). Net-stimulated [^35S]GTPγS binding is defined as [^35S]GTPγS binding in the presence of drug minus basal and percent stimulation is expressed as (net stimulated [^35S]GTPγS binding/basal)×100%. Behavioral Evaluations. All animals were allowed to acclimate to the observation room overnight. Behavioral effects were assessed in the tetrad model in order to measure potency in producing antinociception, catalepsy, hypothermia, and hypomobility. The baselines for tail-flick latency (2-4 seconds) and rectal temperature were determined prior to i.v. injections. Baseline rectal temperatures were measured using a telethermometer and a thermometer probe inserted to 25 mm (Yellow Springs Instrument Co., Yellow Springs, Ohio). The mice were then given either an i.v. i.c.v. injection of the analog. The mice were placed in individual photocell activity chambers 5 min later. Spontaneous activity was monitored for 10 min in a Digiscan Animal Activity Monitor (Omnitech Electronice, Inc., Columbus, Ohio) as measured by the number of interruptions of 16 photocell beams per chamber.
# mice = assay: Tetrad model, all four behavioral measures together (time course, oral and i.c.v. administration); format: in vivo, mouse; settings: for In vivo potency relative to Δ^9-THC (times more potent): i.v., 1:1:18 vehicle; for Potency following oral administration (four tests) / Time course of effects following oral administration: 10 mg/kg; for Potency following oral administration (four tests): 30 minutes before the start of testing; for Time course of effects following oral administration: different time points before testing
# [1] = Stability in buffer, plasma and microsomal enzymes
# [2] = Tables 2b, 3b, 4a, mean±SEM, read-out: CB1 Ki
# T1 sequence (P21554 whole entry): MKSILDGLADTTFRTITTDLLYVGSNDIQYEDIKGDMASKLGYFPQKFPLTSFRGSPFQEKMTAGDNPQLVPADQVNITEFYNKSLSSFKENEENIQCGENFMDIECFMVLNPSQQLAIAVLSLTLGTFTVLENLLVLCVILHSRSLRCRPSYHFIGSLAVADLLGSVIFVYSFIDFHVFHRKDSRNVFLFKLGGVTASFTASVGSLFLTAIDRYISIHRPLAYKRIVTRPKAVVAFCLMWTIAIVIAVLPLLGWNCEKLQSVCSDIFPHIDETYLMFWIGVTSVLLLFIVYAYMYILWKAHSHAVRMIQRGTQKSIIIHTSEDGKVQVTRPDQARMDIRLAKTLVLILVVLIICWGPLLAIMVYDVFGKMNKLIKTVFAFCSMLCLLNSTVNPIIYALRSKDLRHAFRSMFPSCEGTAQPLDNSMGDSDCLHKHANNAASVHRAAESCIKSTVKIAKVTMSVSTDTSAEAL
compound,measurement,setting,value
1-(2-methyl-4-N-piperidinobutyryloxy) [O-2374],Ki,human CB1 receptor; [2],4.62 ± 2.2 nM
"CC1=CC[C@@H]2[C@@H](C1)c1c(O)cc(C(C)(C)CCCCC(N)=O)cc1OC2(C)C [O-2352, Carboxamido]",In vivo potency relative to Δ^9-THC (times more potent),mice; mice,slightly more potent than Δ^9-THC
same,Ki,human CB1 receptor; CB1 Ki,13.1 ± 0.61 nM
"CC1=CC[C@@H]2[C@@H](C1)c1c(O)cc(C(C)(C)CCCCC(=O)N3CCOCC3)cc1OC2(C)C [O-2372, Morpholino-carboxamido]",Ki,human CB1 receptor; CB1 Ki,1.3 ± 0.12 nM
"CC1=CC[C@@H]2[C@@H](C1)c1c(O)cc(C(C)(C)CCCCC(=O)N3CCCCC3)cc1OC2(C)C [O-2373, Piperidino-carboxamido]",Ki,human CB1 receptor; CB1 Ki,0.96 ± 0.11 nM
"CC1=CC[C@@H]2[C@@H](C1)c1c(O)cc(C(C)(C)CCCCC(=O)N3CCN(C)CC3)cc1OC2(C)C [O-2381, Methylepiperazino-carboxamido]","Decrease of CB1 receptor affinity and pharmacological potency, piperidine to piperazine",human CB1 receptor,more than a hundred fold
same,Ki,human CB1 receptor; CB1 Ki,112 ± 14 nM
"CC1=CC[C@@H]2[C@@H](C1)c1c(O)cc(C(C)(C)CCCCC(=O)N3CCCC3)cc1OC2(C)C [O-2399, Pyrrolidino-carboxamido]",Ki,human CB1 receptor; CB1 Ki,2.85 ± 0.52 nM
"CC1=CC[C@@H]2[C@@H](C1)c1c(O)cc(C(C)(C)CCCCC(=O)N3CCCCCC3)cc1OC2(C)C [O-2421, Homopiperidino-carboxamido]",Ki,human CB1 receptor; CB1 Ki,4.24 ± 1.01 nM
"CC1=CC[C@@H]2[C@@H](C1)c1c(O)cc(C(C)(C)CCCCC(=O)NN3CCCCCC3)cc1OC2(C)C [O-2489, N-(Homo-piperidin-1-yl)-carboxamido]",Ki,human CB1 receptor; CB1 Ki,15.8 ± 0.44 nM
"CNC(=O)CCCCC(C)(C)c1cc(O)c2c(c1)OC(C)(C)[C@@H]1CC=C(C)C[C@@H]21 [O-2490, N-(Methyl)carboxamido]",Maximal effects in hypothermia and catalepsy assays,mice; dose 1 mg/kg that produced maximal effects in the other two measures,failed to produce maximal effects in hypothermia and catalepsy assays
same,Ki,human CB1 receptor; CB1 Ki,18.7 ± 0.58 nM
"CC1=CC[C@@H]2[C@@H](C1)c1c(O)cc(C(C)(C)CCCCC(=O)NN3CCCC3)cc1OC2(C)C [O-2543, N-(Pyrrolidin-yl)-carboxamido]",Ki,human CB1 receptor; CB1 Ki,23.3 ± 3.4 nM
"CC1=CC[C@@H]2[C@@H](C1)c1c(O)cc(C(C)(C)CCCCC(=O)NN3CCOCC3)cc1OC2(C)C [O-2544, N-(Morpholin-1-yl)-carboxamido]",Ki,human CB1 receptor; CB1 Ki,5.97 ± 0.65 nM
"CC1=CC[C@@H]2[C@@H](C1)c1c(O)cc(C(C)(C)CCCCn3ccnc3)cc1OC2(C)C [O-2545, Imidazol-1-yl]",Time course of effects after i.v. administration,"mice; FIG. 10, 0.24 μmoles/kg i.v., saline","At 1 hr all effects, except ring immobility, are present but only antinociception is present at 2 hours"
same,Activity in the behavioral tests after i.c.v. injection,"mice; i.c.v., analogs dissolved in water, THC in emulphor:ethanol:saline, Table 5 not given",the most potent
same,In vivo potency relative to Δ^9-THC (times more potent),mice; mice,at least 40 fold
same,Potency following oral administration (four tests),mice,"fully effective in producing antinociception, hypothermia and ring immobility but was only a partial agonist in producing sedation"
same,Time course of effects following oral administration,mice,By four hrs the effects had largely dissipated; also recorded: produce the full range of effects up to 2 hours
same,Ki,human CB1 receptor; CB1 Ki,1.34 nM and 1.47 nM
same,"Stability in buffer, plasma and microsomal enzymes",[1],excellent stability in buffer and plasma and microsomal enzymes
"CC1=CC[C@@H]2[C@@H](C1)c1c(O)cc(C(C)(C)CCCCn3ccnc3C)cc1OC2(C)C [O-2651, 2-Methyl-imidazol-1-y1]","In vivo potency, fold less potent than the hydrochloride salt of O-2545","mice; mice, administered in saline",at least 10 fold
same,Ki,human CB1 receptor; CB1 Ki,13.9 ± 0.83 nM
"CC1=CC[C@@H]2C(C1)c1c(OC(=O)CCCN(C(C)C)C(C)C)cc(C(C)(C)CCCCC(=O)N3CCOCC3)cc1OC2(C)C (some centres unmarked) [O-2694, Diisopropylaminobutyrate of Δ^8-THC-3-(1,1-dimethyl-6-morpholin-4-yl-6-oxo-hexyl)]",Ki,human CB1 receptor; [2],3.7 ± 0.43 nM
"CC1=CC[C@@H]2[C@@H](C1)c1c(O)cc(C(C)(C)CCCCn3cccn3)cc1OC2(C)C [O-2715, Pyrazol-1-yl]",Time course of effects after i.v. administration,"mice; FIG. 12, 0.3 mg/kg (0.74 μmoles/kg) i.v., vehicle 1:1:18",duration of antinociception and hypothermia exceeded that of sedation and relative immobility
same,Potency following oral administration (four tests),mice,active in all tests
same,Time course of effects following oral administration,mice,negligible effects at one hr; also recorded: effects that lasted only 1 hour
same,Ki,human CB1 receptor; CB1 Ki,1.94 ± 0.29 nM
"CC1=CC[C@@H]2[C@@H](C1)c1c(O)cc(C(C)(C)CCCCn3cncn3)cc1OC2(C)C [O-2716, 1,2,4-Triazol-1-yl]",Time course of effects after i.v. administration,"mice; FIG. 11, 0.1 mg/kg (0.24 μmoles/kg) i.v., vehicle 1:1:18",relatively short acting with most of the effects gone by 1 hour and no separation of effects
same,Time course of effects following oral administration,mice,Maximal effects were observed at 30 min and only a slight decrease in activity was observed at 2 hrs; also recorded: effects lasted at least 2 hours
same,Ki,human CB1 receptor; CB1 Ki,3.43 ± 0.16 nM
"CC1=CC[C@@H]2[C@@H](C1)c1c(O)cc(C(C)(C)CCCCc3ncc[nH]3)cc1OC2(C)C [O-2737, 1H-Imidazol-2-yl]",Ki,human CB1 receptor; CB1 Ki,54 nM and 54.9 nM

# — patent publication US20080064679A1, “Water Soluble Cannabinoids” (priority 2004, published 2008)
